Results on eight molecules are retold here after patent EP0503411A1, “Substituted N-phenylpiperidines and medicaments thereof” (BASF Aktiengesellschaft, priority 1991, dated 1992).

One experiment addresses Sigma-Rezeptor. As to the kind of experiment: Sigma receptor binding test ([³H]-Ditolylguanidin binding, rat cerebrum membranes). Set-up: species or system Ratte. The note with it: [³H]-Ditolylguanidin-Bindungsstelle, 37°C. From the text: Der verwendete Bindungsassay (Bindung von [³H]-Ditolylguanidin) erfaßt sogenannte "Haloperidolsensitive-Sigma-Rezeptoren", die eine hohe Affinität zum Haloperidol, aber nur geringe Affinität zum Phencyclidin und zu Opoiden aufweisen.
Life Sciences 47, 1073 (1990)], eingesetzt.
Rattengroßhirne wurden in dem 10fachen Volumen Homogenisierungspuffer (50 mmol Tris(hydroxymethyl)-amino-methan, 0,1 mmol Ethylendiamintetraacetat, pH=7,7) mit einem Polytron-Homogenisiator homogenisiert (20 sec.). Nach 15 Minuten Zentrifugation bei 40000 Umdrehungen/min wurde das erhaltene Pellet resuspendiert und die Suspension erneut 15 Minuten lang mit 40000 Umdrehungen/min zentrifugiert. Das hierbei erhaltene Pellet wurde im 5fachen Volumen Homogenisierungspuffer resuspendiert und bis zur weiteren Verwendung in flüssigem Stickstoff eingefroren.
Testsubstanz und Membranen (0,3 mg Protein) wurden in 0,3 ml Inkubationspuffer (5 mmol Tris(hydroxymethyl)-amino-methan, 0,1 mmol Ethylendiamintetraacetat, pH=7,7) 45 Minuten bei 37°C inkubiert. Nach Zugabe von 100 000 dpm [³H]-Ditolylguanidin (54,5 Ci/mmol) wurde noch 1 Stunde inkubiert. Die Membranen wurden über GF/B-Filter (dunn-Labortechnik, Asbach) filtriert und mit einem 37°C warmen Waschpuffer (5 mmol Tris(hydroxymethyl)-amino-methan, 0,1 mmol Ethylendiamintetraacetat, pH=7,4) gewaschen. Die verbleibende Radioaktivität auf den Filtern wurde durch Flüssig-Scintillationszählung gemessen. Die Bindungsdaten wurden durch iterative Anpassungsprogramme analysiert.

A further experiment deals with Meerschweinchenherzen. Description: QT-prolonging effect, ECG measurement on isolated Langendorff-perfused guinea pig heart. Details: species or system Duncin-Hartley-Meerschweinchen. The note with it: concentration in perfusate giving 20 % increase of initial QT duration, cumulative addition every 15 min, from linear regression. The source says: Die Wirkung der Phenylpiperidine I als Repolarisationshemmstoffe kann man durch EKG-Messungen belegen. Dabei unterteilt man die Herzperiode zeitlich in Systole (Zusammenziehen des Herzens), auch QT-Dauer genannt, und Diastole (Erschlaffung des Herzens mit Blutfüllung der Herzkammern). Repolarisationshemmstoffe bewirken nun eine Verlängerung der QT-Dauer ohne die Vorhofkammer-überleitungszeit (PQ-Dauer) und die Anspannungszeit (QRS-Dauer, Beginn der Systole bis zum öffnen der Semilunarklappen) wesentlich zu verändern (s. Pschyrembel, 254. Auflage, 1982).
Die Wirksamkeit der erfindungsgemäßen Verbindungen als Repolarisationshemmstoffe läßt sich im Tierversuch durch EKG-Messungen beispielsweise am Meerschweinchenherzen untersuchen (s. Basic Res. Cardiol. 82 (1987) 437; J. Pharmacol. Methods 21 (1989) 195). Zum Vergleich der Wirksamkeit mehrerer Substanzen dient dabei zum Beispiel die Dosis eines Wirkstoffes, bei der eine 20 %ige Zunahme des QT-Ausgangswertes eintritt (ED₂₀ %). Hierzu trägt man die logarithmierten Dosiswerte der jeweiligen Substanzen gegen die experimentell gefundenen relativen Änderungen der QT-Dauer auf, und ermittelt mittels linearer Regression die Funktionsgleichung einer Geraden, aus der man dann den ED20 %-Wert berechnen kann.
Mit dieser Methode wurden die ED20 %-Werte erfindungsgemäßer Verbindungen bestimmt (s. Tabelle 1). Als Vergleichssubstanz diente D-Sotalol [4'-(1-Hydroxy-2-(isopropylamino)-ethyl)methansulfonanilid].
Als Versuchstiere dienten männliche Duncin-Hartley-Meerschweinchen mit einem Körpergewicht von 300 bis 350 g. 30 min nach Applikation von 1250 I.E. Heparin/kg Körpergewicht in den Bauchraum wurden die Tiere durch Genickschlag getötet. Nach dem Durchtrennen der Kopfschlagadern zum Entbluten, wurde der Bruststamm geöffnet, das Herz herausgetrennt und an eine Perfusionsapparatur angeschlossen. Die Perfusion erfolgte nach Langendorff mit Sauerstoff angereicherter auf 37°C erwärmter Krebs-Henseleit-Lösung (NaCl 6896 mg/l; KCl 350 mg/l; MgSO₄ 285 mg/l; CaCl₂ 370 mg/l; KH₂PO₄ 161 mg/l; NaHCO₃ 2090 mg/l; Glukose 2000 mg/l). Dabei wurde das Perfusionsvolumen pro Zeiteinheit bei einem Gesamtvolumen von 100 ml auf 4 bis 6 ml/min und der Perfusionsdruck auf 60 bis 70 mm Hg eingestellt. Nach einer Äquilibrierzeit von 30 min wurde zirkulierend perfundiert.
Die EKG-Messungen wurden über zwei Silberelektroden, die auf der Herzoberfläche im oberen Bereich der linken Koronararterie und auf der Rückseite des Herzens auf Höhe der Ventilebene angebracht waren, aufgenommen. Gemessen wurden die PQ-, QT- und QRS-Zeiten sowie die Herzfrequenz.
Die Substanzgabe erfolgte kumulativ im Abstand von 15 min ins Perfusat.

pKi: −log10 of the molar value.

On to “1-(4-Nitrophenyl)-4-(4-phenyl-1-piperidinoyl)-piperidin [Beispiel 8]”, for which the pKi (in general, the Ki on a negative log10 scale, so that one unit is a factor of ten) at Sigma-Rezeptor was 8.55. As for `N#Cc1ccc(N2CCC(N3CCN(c4ccc([N+](=O)[O-])cc4)CC3)CC2)cc1` [Beispiel 3, N-[4-N(4-Cyanophenyl)piperidinoyl]-N'³(4-nitrophenyl)-piperazin], in the experiment on Meerschweinchenherzen, the ED20 % is given as 0,031 µmol/l. On to `CN(Cc1ccc(NS(C)(=O)=O)cc1)CC1CCN(c2ccc(NS(C)(=O)=O)cc2)CC1` [Beispiel 10, 1-(4-Methansulfonamidophenyl)-4-(N-(4-methansulfonamidobenzyl)-N-methylaminomethyl)-piperidin], for which the ED20 % in the experiment with Meerschweinchenherzen is on record as 0,96 µmol/l. For `CC(C)NCC(O)c1ccc(NS(C)(=O)=O)cc1` [D-Sotalol, 4'-(1-Hydroxy-2-(isopropylamino)-ethyl)methansulfonanilid, reference compound], the ED20 % with Meerschweinchenherzen is reported as 16,0 µmol/l. On Sigma-Rezeptor, `CN(Cc1ccccc1)CC1CCN(c2ccc([N+](=O)[O-])cc2)CC1` [Beispiel 2, 4-(N-Benzyl-N-methylaminomethyl)-1-(4-nitrophenyl)-piperidin] showed a pKi of 7.96. Also, in the experiment on Meerschweinchenherzen, the ED20 % is 0,42 µmol/l. For `CN(CC(O)c1ccc(F)cc1)C1CCN(c2ccc([N+](=O)[O-])cc2)CC1` (stereo not shown) [Beispiel 12, 4-[N,N-[2-(4-Fluorphenyl)-2-hydroxyethyl]methylamino]-1-(4-nitrophenyl)-piperidin], the ED20 % in the experiment with Meerschweinchenherzen is recorded as 0,21 µmol/l. `Cc1ccccc1NC(=N)Nc1ccccc1C` [DTG, 1,3-Di-o-tolyl-guanidin, reference compound]: the pKi at Sigma-Rezeptor was 7.54. On Sigma-Rezeptor, `CN(Cc1ccccc1)C1CCCN(c2ccc([N+](=O)[O-])cc2)C1` (stereo not shown) [Beispiel 11, 3-(N-Benzyl-N-methylamino)-1-(4-nitrophenyl)-piperidin] had a pKi of 8.70. Also, in the experiment on Meerschweinchenherzen, the ED20 % was 1,1 µmol/l.
